Calls of active or inactive are those of the source. No cut-off for these calls is given here.
Key:
[1] = Stability in human serum at 37 degC after 3 days; format: ADME, cell-free; settings: read-out: Stability
[2] = Antagonist activity at ryanodine receptor in sea urchin egg homogenates assessed as decrease in cADPcR-induced calcium release by fluorimetry; format: functional, tissue-based, Lytechinus pictus
Lytechinus pictus = experiment: Agonist activity at ryanodine receptor in sea urchin egg homogenates assessed as effect on calcium release at 30 uM by fluorimetry; format: functional, tissue-based
[3] = Agonist activity at ryanodine receptor in sea urchin egg homogenates assessed as effect on calcium release by fluorimetry; format: functional, Lytechinus pictus

Row | Structure (SMILES) | remaining at 72 h [1] [%] | IC50 [2] [µM] | Activity (Lytechinus pictus) | EC50 [3] [µM]
1 | NCC[C@@H]1OP(=O)([O-])OP(=O)(O)OC[C@H]2O[C@H]([C@H](O)[C@@H]2O)n2cnc3c(N)[n+](cnc32)[C@@H]2C[C@H]1[C@@H](O)[C@H]2O | – | 120 | inactive | –
2 | Nc1c2ncn3c2nc[n+]1[C@@H]1O[C@H](COP(=O)([O-])OP(=O)(O)OC[C@H]2O[C@@H]3[C@H](O)[C@@H]2O)[C@@H](O)[C@H]1O | – | – | – | 0.21
3 | Nc1c2ncn3c2nc[n+]1[C@@H]1C[C@H](COP(=O)([O-])OP(=O)(O)OC[C@H]2O[C@@H]3[C@H](O)[C@@H]2O)[C@@H](O)[C@H]1O | – | – | – | 0.079

The remaining lines, values ahead:

Row | remaining at 72 h [1] [%] | IC50 [2] [µM] | Activity (Lytechinus pictus) | EC50 [3] [µM] | Structure (SMILES)
4 | 89 | 19 | inactive | – | [N-]=[N+]=NCC[C@@H]1OP(=O)(O)OP(=O)([O-])OC[C@H]2O[C@H]([C@H](O)[C@@H]2O)n2cnc3c(N)[n+](cnc32)[C@@H]2C[C@H]1[C@@H](O)[C@H]2O
5 | – | 14 | inactive | – | [N-]=[N+]=NCC[C@H]1OP(=O)([O-])OP(=O)(O)OC[C@H]2O[C@H]([C@H](O)[C@@H]2O)n2cnc3c(N)[n+](cnc32)[C@@H]2C[C@H]1[C@@H](O)[C@H]2O
6 | – | 73 | inactive | – | NCC[C@H]1OP(=O)([O-])OP(=O)(O)OC[C@H]2O[C@H]([C@H](O)[C@@H]2O)n2cnc3c(N)[n+](cnc32)[C@@H]2C[C@H]1[C@@H](O)[C@H]2O
